Format in all cases: functional, cell-based
The target in series [1] is T1, ATP-dependent translocase ABCB1 (Homo sapiens, UniProt P08183). The series is described as follows: TP_TRANSPORTER: inhibition of Levofloxacin transepithelial transport (basal to apical) (Levofloxacin: 100 uM, PAH: 2500 uM) in MDR1-expressing LLC-PK1 cells. To be noted: pig, llc-pk1, 2500 µM.
The target in series [2] is T1, ATP-dependent translocase ABCB1. The series is described as follows: TP_TRANSPORTER: inhibition of DU-6895a transepithelial transport (basal to apical) (DU-6895a: 100 uM, Levofloxacin: 3000 uM) in MDR1-expressing LLC-PK1 cells. To be noted: pig, llc-pk1, 3000 µM.
Series [3] has the same target. The series is described as follows: TP_TRANSPORTER: inhibition of Daunorubicin transepithelial transport (basal to apical) (Daunorubicin: 0.1 uM, Levofloxacin: 3000 uM) in MDR1-expressing LLC-PK1 cells. The following applies: pig, llc-pk1, 3000 µM.
The test system of series [4] is C[C@H]1COc2c(N3CCN(C)CC3)c(F)cc3c(=O)c(C(=O)O)cn1c23. The series is described as follows: TP_TRANSPORTER: transepithelial transport (basal to apical) in MDR1-expressing LLC-PK1 cells.

The text below walks through data of ChEMBL document CHEMBL2074274, “Transport of quinolone antibacterial drugs by human P-glycoprotein expressed in a kidney epithelial cell line, LLC-PK1” (J Pharmacol Exp Ther, 1997).

T1 sequence (P08183 whole entry): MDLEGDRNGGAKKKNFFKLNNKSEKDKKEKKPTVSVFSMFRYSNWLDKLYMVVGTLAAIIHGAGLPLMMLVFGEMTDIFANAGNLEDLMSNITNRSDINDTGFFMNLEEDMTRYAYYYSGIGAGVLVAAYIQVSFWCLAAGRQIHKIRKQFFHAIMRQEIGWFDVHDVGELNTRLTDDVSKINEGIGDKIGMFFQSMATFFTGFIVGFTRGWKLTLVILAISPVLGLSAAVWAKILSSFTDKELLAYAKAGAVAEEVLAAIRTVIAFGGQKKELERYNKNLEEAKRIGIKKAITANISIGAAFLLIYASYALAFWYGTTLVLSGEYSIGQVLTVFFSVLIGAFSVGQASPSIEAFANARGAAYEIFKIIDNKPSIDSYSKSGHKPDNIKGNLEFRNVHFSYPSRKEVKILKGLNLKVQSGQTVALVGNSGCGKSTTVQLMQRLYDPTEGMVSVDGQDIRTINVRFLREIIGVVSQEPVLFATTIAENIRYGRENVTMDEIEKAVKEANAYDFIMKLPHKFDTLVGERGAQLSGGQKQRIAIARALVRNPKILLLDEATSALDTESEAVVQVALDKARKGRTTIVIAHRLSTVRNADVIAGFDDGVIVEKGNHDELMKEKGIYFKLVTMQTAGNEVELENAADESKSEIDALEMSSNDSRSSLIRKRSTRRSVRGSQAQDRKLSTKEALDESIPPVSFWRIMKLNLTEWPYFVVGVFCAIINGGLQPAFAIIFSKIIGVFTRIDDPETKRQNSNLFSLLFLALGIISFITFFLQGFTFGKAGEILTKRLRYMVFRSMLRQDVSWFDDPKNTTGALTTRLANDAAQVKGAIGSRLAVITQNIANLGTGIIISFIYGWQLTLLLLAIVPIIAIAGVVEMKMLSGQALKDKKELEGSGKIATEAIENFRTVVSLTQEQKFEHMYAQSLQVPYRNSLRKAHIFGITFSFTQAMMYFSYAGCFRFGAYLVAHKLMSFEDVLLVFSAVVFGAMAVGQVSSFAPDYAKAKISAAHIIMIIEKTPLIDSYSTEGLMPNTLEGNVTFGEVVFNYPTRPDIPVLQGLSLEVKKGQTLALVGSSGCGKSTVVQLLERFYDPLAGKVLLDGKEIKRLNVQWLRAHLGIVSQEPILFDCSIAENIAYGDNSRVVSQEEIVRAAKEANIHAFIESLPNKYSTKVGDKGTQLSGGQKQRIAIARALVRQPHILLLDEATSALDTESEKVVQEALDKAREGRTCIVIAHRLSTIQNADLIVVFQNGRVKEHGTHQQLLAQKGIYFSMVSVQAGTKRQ

Consider `Nc1ccc(C(=O)NCC(=O)O)cc1` [AMINOHIPPURIC ACID], for which, in series [1], the Activity entry was “is not an inhibitor [-]”. `C[C@H]1COc2c(N3CCN(C)CC3)c(F)cc3c(=O)c(C(=O)O)cn1c23.C[C@H]1COc2c(N3CCN(C)CC3)c(F)cc3c(=O)c(C(=O)O)cn1c23.O` [LEVOFLOXACIN]: the Activity result in series [2] and in series [3] was “inhibitor [+]” throughout.

As usually defined, the Km is the substrate concentration at which the rate is half of its maximum. On to “ATP-dependent translocase ABCB1 (Homo sapiens)”, for which the Km in series [4] amounted to 3 mM.
